Experimental data published in publication PMC10350552, “Investigation of the GnRH antagonist degarelix isomerization in biological matrices” (Pharmacology Research & Perspectives, 2023).
Where a SMILES comes first, the peptide text is derived from it. [ ]: non-standard residue; d: D form. The star is where a group is joined. dPhe(4-NHCONH2) = NC(=O)Nc1ccc(C[C@@H](N)C(=O)O)cc1; Dihydroorotyl(S) = O=C1C[C@@H](C(=O)*)NC(=O)N1; dPhe(4-Cl) = N[C@H](Cc1ccc(Cl)cc1)C(=O)O; Phe(4-NH2) = Nc1ccc(C[C@H](N)C(=O)O)cc1; d2Nal = N[C@H](Cc1ccc2ccccc2c1)C(=O)O; Lys(iPr) = CC(C)NCCCC[C@H](N)C(=O)O; X1 = O=C1NC(=O)[C@H](CC(=O)*)N1; d3Pal = N[C@H](Cc1cccnc1)C(=O)O

Legend:
[1] = Stability in HSA solution with warfarin; assay type: in vitro ADME, human; conditions: 37°C, 2000 ng/mL, up to 48 h
Text: (§1) The solutions were shaken and centrifuged. […] All the experiments were repeated three times.

[2] = Stability in 4.5% human serum albumin (HSA) solution without warfarin; assay type: in vitro ADME; conditions: 37°C, 2000 ng/mL, up to 48 h
Text: as §1

[3] = in vitro; conditions: male, human, plasma, pH 7.8
Description: Degarelix or 5‐Hyd‐degarelix test solutions (10 μL of 180 μg/mL degarelix or 5‐Aph(Hyd)‐degarelix in 20% acetonitrile) were each mixed with 890 μL of human plasma, Dulbecco buffer (5 mM NaH2PO4, 20 mM Na2HPO4, 5 mM KCl, 120 mM NaCl, adjusted to pH 7.4 with NaOH), 4.5% human serum albumin solution (HSA solution), and human serum albumin solution with 0.21 mg/mL warfarin: 3960 μL HSA solution +40 μL warfarin stock solution (21 mg warfarin in 1 mL water)to a final concentration of 2000 ng/mL of each analyte and 0.2% of acetonitrile. […] The samples were then diluted with 10 μL of the solution of 0.1% of formic acid in 20% acetonitrile and 70 μL of acetonitrile. The solutions were shaken and centrifuged. To 50 μL of the supernatant, 20 μL of water and 0.2% of formic acid were added and the solution was used for HPLC analysis. All the experiments were repeated three times.
The ANALYST software was used to integrate all peaks automatically by use of the IntelliQuan algorithm and to calculate the calibration curves of degarelix and 5‐Aph(Hyd)‐degarelix by linear regression with a weighting of 1/x ^2. The parameters for peak integrations were adapted for all samples in each analytical batch. The ANALYST software was used to calculate the concentrations of the test and QC samples based on the corresponding calibration curves.

[4] = tested on: human cytochrome P450 system; conditions: cited from earlier work
[5] = in vivo; cited from earlier work
[6] = tested on: human serum albumin (HSA); conditions: cited from earlier work
Text: After its approval by FDA in 2008, degarelix became the most widely used GnRH antagonist in patients with advanced prostate cancer.[17] The advantages of degarelix are its high affinity to the GnRH receptor, increased hydrophilicity, and decreased propensity to form gels. As a result, degarelix has better bioavailability than the previous GnRH antagonists. These improved characteristics are related to the presence of additional 4‐[(aminocarbonyl)amino]‐phenylalanine [Aph(Cbm)] and 4‐[(dihydroorotyl)amino]‐phenylalanine [Aph(Hor)] moieties, which afford multiple hydrogen‐bonding sites and permi ...

Row | Compound | Change in the 5-Aph(Hyd)-degarelix content ([1]; 5-Aph(Hyd)-degarelix in HSA solution with warfarin) | Formation of 5-Aph(Hyd)-degarelix from degarelix ([1]; degarelix in 4.5% HSA solution with 0.21 mg/mL warfarin (equimolar to albumin), HPLC-MS/MS) | Change in the 5-Aph(Hyd)-degarelix content ([2]; 5-Aph(Hyd)-degarelix in 4.5% HSA solution without warfarin) | Formation of 5-Aph(Hyd)-degarelix from degarelix ([2]; degarelix in 4.5% HSA solution without warfarin, HPLC-MS/MS) | remaining at 8 h, 2000 ng/mL [3] [%] | remaining at 24 h, 2000 ng/mL [3] [%] | remaining at 32 h, 2000 ng/mL [3] [%] | remaining at 48 h, 2000 ng/mL [3] [%] | Substrate for the human cytochrome P450 system [4] | Time to reach the maximum concentration in the blood [5] [h] | Binding to human serum albumin (HSA) [6] [%]
1 | CC(=O)N[C@H](Cc1ccc2ccccc2c1)C(=O)N[C@H](Cc1ccc(Cl)cc1)C(=O)N[C@H](Cc1cccnc1)C(=O)N[C@@H](CO)C(=O)N[C@@H](Cc1ccc(NC(=O)C[C@@H]2NC(=O)NC2=O)cc1)C(=O)N[C@H](Cc1ccc(NC(N)=O)cc1)C(=O)N[C@@H](CC(C)C)C(=O)N[C@@H](CCCCNC(C)C)C(=O)N1CCC[C@H]1C(=O)N[C@H](C)C(N)=O [5‐Aph(Hyd)‐degarelix] (Ac-[d2Nal][dPhe(4-Cl)][d3Pal]S[Phe(4-NH2)](X1)[dPhe(4-NHCONH2)]L[Lys(iPr)]P[dA]-NH2) | we did not see any change | No 5‐Aph(Hyd)‐degarelix was observed | we did not see any change | No 5‐Aph(Hyd)‐degarelix was observed | 103 | 93 | 91 | 80 |  |  | 
2 | CC(=O)N[C@H](Cc1ccc2ccccc2c1)C(=O)N[C@H](Cc1ccc(Cl)cc1)C(=O)N[C@H](Cc1cccnc1)C(=O)N[C@@H](CO)C(=O)N[C@@H](Cc1ccc(NC(=O)[C@@H]2CC(=O)NC(=O)N2)cc1)C(=O)N[C@H](Cc1ccc(NC(N)=O)cc1)C(=O)N[C@@H](CC(C)C)C(=O)N[C@@H](CCCCNC(C)C)C(=O)N1CCC[C@H]1C(=O)N[C@H](C)C(N)=O [degarelix] (Ac-[d2Nal][dPhe(4-Cl)][d3Pal]S[Phe(4-NH2)](Dihydroorotyl(S))[dPhe(4-NHCONH2)]L[Lys(iPr)]P[dA]-NH2) |  |  |  |  | 104 | 92 | 91 | 74 | not a substrate | 37 to 42 | 76.3
